Test results published in patent publication US6552000B2, “Anticonvulsant derivatives useful in treating autism” (Ortho-McNeil Pharmaceutical, Inc., priority 1999, dated 2003).

Legend:
partial onset seizures = test: placebo controlled, add on trials in partial onset seizures; type: in vivo; conditions: adults and children with partial onset seizures
Excerpt: There is also known enhancement of GABA activity in the brain along with reduced glutamate receptor activity. Accordingly, compounds of formula I are useful in the treatment of autism.

seizures = conditions: several rodent models of epilepsy; cited from earlier work
[1] = system: simple and complex partial seizures and secondarily generalized seizures; conditions: clinical trials of human epilepsy; adjunctive therapy or monotherapy; cited from earlier work
kindled epilepsy = conditions: animal model of kindled epilepsy; cited from earlier work

CC1(C)O[C@@H]2[C@@H](CO[C@@]3(COS(N)(=O)=O)OC(C)(C)O[C@@H]23)O1 [topiramate, 2,3:4,5-bis-O-(1-methylethylidene)-β-D-fructopyranose sulfamate]
reduction of seizure rate versus placebo (partial onset seizures): statistically significant reduction of seizure rate | block of seizures (seizures): effectively block seizures | efficacy in treating simple and complex partial seizures and secondarily generalized seizures [1]: effective | block of seizures (kindled epilepsy): effectively block seizures
